For this experiment, the target named is T1, human APJ receptor (Homo sapiens, UniProt P35414).
T1 construct: expressed in transfected cells
T1 sequence (P35414 1-380): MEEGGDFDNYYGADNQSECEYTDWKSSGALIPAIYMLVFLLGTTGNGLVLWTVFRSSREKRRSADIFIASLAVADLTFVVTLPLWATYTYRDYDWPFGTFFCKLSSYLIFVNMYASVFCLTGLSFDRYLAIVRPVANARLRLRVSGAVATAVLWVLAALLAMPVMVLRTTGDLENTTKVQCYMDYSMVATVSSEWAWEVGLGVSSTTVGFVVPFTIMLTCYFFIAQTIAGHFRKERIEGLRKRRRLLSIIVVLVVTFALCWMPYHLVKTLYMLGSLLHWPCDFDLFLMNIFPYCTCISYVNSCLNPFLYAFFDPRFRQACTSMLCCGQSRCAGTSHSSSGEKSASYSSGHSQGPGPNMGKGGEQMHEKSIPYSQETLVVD
Description: Intracellular cAMP accumulation assay (APJ hcAMP, HTRF). Format: cell-based. Here is the method: Intracellular cAMP Accumulation Assay
HEK293 cells stably expressing human APJ receptor were used to assess the activity of compounds. Cultured cells were detached and resuspended in the cAMP Homogeneous Time-Resolved Fluorescence (HTRF) assay buffer (Cisbio cat; #62AM4PEJ). The assay was performed in 384-well assay plates (Perkin-Elmer; cat #6008289) according to assay protocol provided by the manufacturer. Serial dilutions of a compound together with assay buffer containing […] IBMX and 2 μM forskolin were added to each well containing 5,000 cells and incubated for 30 minutes at room temperature. Subsequently, cAMP D2 reagent was added in the lysis buffer followed by the EuK antibody (Cisbio; cat #62AM4PEJ) and incubated for 60 min. The fluorescence emission ratio was measured using fluorometer. The intracellular cAMP concentrations (compound-stimulated inhibition of forskolin-mediated cAMP production) were calculated by extrapolation from a standard curve using known cAMP concentrations. The EC50 values were obtained by fitting the data to a sigmoidal concentration-response curve with variable slope. The maximal achievable inhibition of forskolin-induced cAMP levels (Ymax) for each compound was expressed as relative percentage of inhibition attained using pyroglutamated apelin-13 ((Pyrl)apelin-13) peptide, which was set to 100%.
The exemplified Examples disclosed below were tested in the APJ in vitro assays described above and were found having human APJ cyclic AMP (hcAMP) activity. Table 1 lists hcAMP EC50 values measured for the following examples. Ranges are as followε: A=0.0-10 nM; B=10.01-100 nM; C=101-500 nM.
(In general: cAMP levels reflect the balance of adenylyl cyclase and phosphodiesterase activity.)

Where [1] appears, read: Table 1, HEK293 cells stably expressing human APJ receptor, inhibition of forskolin-mediated cAMP production, read-out: APJ hcAMP EC50.
The mark [2] stands for this setting: human APJ, cAMP, potency range class, read-out: APJ cAMP Human EC50.
Setting [3] is: Table 3, HEK293 cells stably expressing human APJ receptor, read-out: APJ cAMP Human EC50.

Like-named read-outs stand apart in the source and are kept apart here.

A word on the EC50: it is the concentration giving half of the maximal effect. Turning to `CC(C)CC(NC(=O)c1ccc(-c2cc(Cl)ccc2-c2nc3ccccc3[nH]2)c(C(=O)O)c1)c1ccccc1` (racemic) [Example 210, 2′-(1H-1,3-benzodiazol-2-yl)-5′-chloro-4-[(3-methyl-1-phenylbutyl)carbamoyl]-[1,1′-biphenyl]-2-carboxylic acid], the EC50 runs as follows: under setting [1], under 10 nM; under setting [2], under 10 nM.
Take `CC(C)(C)CC(NC(=O)c1ccc(-c2cc(Cl)ccc2-c2nc3ccccc3[nH]2)c(C(=O)O)c1)c1ccccc1` (racemic) [Example 212, 2′-(1H-1,3-benzodiazol-2-yl)-5′-chloro-4-[(3,3-dimethyl-1-phenylbutyl)carbamoyl]-[1,1′-biphenyl]-2-carboxylic acid]: the concentration for a half-maximal effect (EC50) was 10 to 100 nM under setting [1] and 10 to 100 nM under setting [2].
For the molecule `CCC(NC(=O)c1ccc(-c2cc(Cl)ccc2-c2nc3ccccc3[nH]2)c(C(=O)O)c1)c1ccccn1` (racemic) [Example 213, 2′-(1H-1,3-benzodiazol-2-yl)-5′-chloro-4-{[1-(pyridin-2-yl)propyl]carbamoyl}-[1,1′-biphenyl]-2-carboxylic acid], the concentration giving a half-maximal response (EC50) reads like this: under setting [1], 10 to 100 nM; under setting [2], 10 to 100 nM.
For `CCC(NC(=O)c1ccc(-c2cc(Cl)ccc2-c2nc3ccccc3[nH]2)c(C(=O)O)c1)c1ccncc1` (racemic) [Example 214, 2′-(1H-1,3-benzodiazol-2-yl)-5′-chloro-4-{[1-(pyridin-4-yl)propyl]carbamoyl}-[1,1′-biphenyl]-2-carboxylic acid], the EC50 is, setting by setting: under setting [1], 10 to 100 nM; under setting [2], 10 to 100 nM.
Turning to `CCC[C@@H](NC(=O)c1ccc(-c2c(C)cccc2-c2nc3cc(C(F)(F)F)ccc3[nH]2)c(C(=O)O)c1)c1ccccc1` (single isomer, unassigned) [Example 146], the EC50 is under 10 nM under setting [1] and under 10 nM under setting [3].
Consider `CCC[C@@H](NC(=O)c1ccc(-c2c(C)cccc2-c2nc3cc(C(F)(F)F)ccc3[nH]2)c(C(=O)O)c1)c1ccccc1` (single isomer, unassigned) [Example 147], for which, under setting [3], the half-maximal effective concentration (EC50) was in the range of 101 to 500 nM.
Regarding `CCCC(NC(=O)c1ccc(-c2c(Cl)cccc2-c2nc3cc(Cl)c(F)cc3[nH]2)c(C(=O)O)c1)C1CCCCC1` (single isomer, unassigned) [Example 161], the concentration for a half-maximal effect (EC50) reads like this: under setting [1], under 10 nM; under setting [2], under 10 nM.
As to `CCCC(NC(=O)c1ccc(-c2c(Cl)cccc2-c2nc3ccccc3[nH]2)c(C(=O)O)c1)c1c(C)cc(C)cc1C` (single isomer, unassigned) [Example 163], the EC50 is under 10 nM under setting [1] and under 10 nM under setting [2].
As to `CCCC(NC(=O)c1ccc(-c2c(Cl)cccc2-c2nc3ccccc3[nH]2)c(C(=O)O)c1)c1ccc(Cl)cc1OC` (single isomer, unassigned) [Example 164], the EC50 was under 10 nM under setting [1] and under 10 nM under setting [2].
Take `CCCC(NC(=O)c1ccc(-c2c(Cl)cccc2-c2nc3ccccc3[nH]2)c(C(=O)O)c1)c1ccc(F)cc1OC` (single isomer, unassigned) [Example 165]: the 50% effective concentration (EC50) is, setting by setting: under setting [1], under 10 nM; under setting [2], under 10 nM.
Consider `CCCC(NC(=O)c1ccc(-c2c(Cl)cccc2-c2nc3ccccc3[nH]2)c(C(=O)O)c1)c1ccc(Cl)cc1OC` (single isomer, unassigned) [Example 166], for which the concentration giving a half-maximal response (EC50) under setting [1] was under 10 nM.
`CCCC(NC(=O)c1ccc(-c2c(Cl)cccc2-c2nc3ccccc3[nH]2)c(C(=O)O)c1)c1ccncc1` (single isomer, unassigned) [Example 168]: the EC50 is, setting by setting: under setting [1], under 10 nM; under setting [2], under 10 nM.
With `CCCC(NC(=O)c1ccc(-c2c(Cl)cccc2-c2nc3ccccc3[nH]2)c(C(=O)O)c1)c1ccccc1Cl` (single isomer, unassigned) [Example 169], the concentration giving a half-maximal response (EC50) is under 10 nM under setting [1] and under 10 nM under setting [2].
On to `CCCC(NC(=O)c1ccc(-c2c(Cl)cccc2-c2nc3ccccc3[nH]2)c(C(=O)O)c1)c1cccc(F)c1` (single isomer, unassigned) [Example 171], for which the EC50 is under 10 nM under setting [1] and under 10 nM under setting [2].
With `CCCC(NC(=O)c1ccc(-c2c(Cl)cccc2-c2nc3ccccc3[nH]2)c(C(=O)O)c1)C1CCCCCC1` (single isomer, unassigned) [Example 173], the concentration for a half-maximal effect (EC50) is, setting by setting: under setting [1], under 10 nM; under setting [2], under 10 nM.
In the case of `CCCC(NC(=O)c1ccc(-c2c(Cl)cccc2-c2nc3ccccc3[nH]2)c(C(=O)O)c1)c1ccccn1` (single isomer, unassigned) [Example 175], the EC50 reads like this: under setting [1], under 10 nM; under setting [2], under 10 nM.
Regarding `CCC[C@H](NC(=O)c1ccc(-c2c(Cl)cccc2-c2nc3ccccc3[nH]2)c(C(=O)O)c1)c1ccccc1OC(F)(F)F` (single isomer, unassigned) [Example 176], the EC50 was under 10 nM under setting [1] and under 10 nM under setting [2].
Regarding `CCC[C@H](NC(=O)c1ccc(-c2c(Cl)cccc2-c2nc3ccccc3[nH]2)c(C(=O)O)c1)C1CCCCC1` (single isomer, unassigned) [Example 177], the concentration for a half-maximal effect (EC50) is, setting by setting: under setting [1], under 10 nM; under setting [2], under 10 nM.
Turning to `CCCC(NC(=O)c1ccc(-c2c(Cl)cccc2-c2nc3ccccc3[nH]2)c(C(=O)O)c1)c1c(F)cccc1OC` (single isomer, unassigned) [Example 178], the EC50 under setting [1] was under 10 nM and the 50% effective concentration (EC50) under setting [2] is under 10 nM.
As for `CCCC(NC(=O)c1ccc(-c2c(Cl)cccc2-c2nc3ccccc3[nH]2)c(C(=O)O)c1)c1ccc(Cl)cc1F` (single isomer, unassigned) [Example 182], the concentration for a half-maximal effect (EC50) is under 10 nM under setting [1] and under 10 nM under setting [2].
With `CCCC(NC(=O)c1ccc(-c2c(Cl)cccc2-c2nc3ccccc3[nH]2)c(C(=O)O)c1)C1CCCC1` (single isomer, unassigned) [Example 183], the 50% effective concentration (EC50) reads like this: under setting [1], under 10 nM; under setting [2], under 10 nM.
Consider `CCCC(NC(=O)c1ccc(-c2c(Cl)cccc2-c2nc3ccccc3[nH]2)c(C(=O)O)c1)c1ccc(Cl)cc1F` (single isomer, unassigned) [Example 184], for which the EC50 under setting [1] is under 10 nM.
As for `CCC[C@H](NC(=O)c1ccc(-c2c(Cl)cccc2-c2nc3ccccc3[nH]2)c(C(=O)O)c1)c1cccc(Cl)c1` (single isomer, unassigned) [Example 185], the EC50 under setting [1] was under 10 nM and the EC50 under setting [2] is under 10 nM.
With `CCCC(NC(=O)c1ccc(-c2c(Cl)cccc2-c2nc3ccccc3[nH]2)c(C(=O)O)c1)c1cncs1` (single isomer, unassigned) [Example 186], the EC50 is under 10 nM under setting [1] and under 10 nM under setting [2].
In the case of `CCCC(NC(=O)c1ccc(-c2c(Cl)cccc2-c2nc3ccccc3[nH]2)c(C(=O)O)c1)c1ccccc1C(F)(F)F` (single isomer, unassigned) [Example 189], the EC50 by setting is: under setting [1], 10 to 100 nM; under setting [2], 10 to 100 nM.
As for `CCCC(NC(=O)c1ccc(-c2c(Cl)cccc2-c2nc3ccccc3[nH]2)c(C(=O)O)c1)c1ccccc1OC(F)(F)F` (single isomer, unassigned) [Example 191], the EC50 is 10 to 100 nM under setting [1] and 10 to 100 nM under setting [2].
Turning to `CCCC(NC(=O)c1ccc(-c2c(Cl)cccc2-c2nc3ccccc3[nH]2)c(C(=O)O)c1)c1ccncc1` (single isomer, unassigned) [Example 192], the EC50 is, setting by setting: under setting [1], 10 to 100 nM; under setting [2], 10 to 100 nM.
Take `CCCC(NC(=O)c1ccc(-c2c(Cl)cccc2-c2nc3cc(OC)c(F)cc3[nH]2)c(C(=O)O)c1)C1CCCC1` (single isomer, unassigned) [Example 195]: the EC50 is under 10 nM under setting [1] and under 10 nM under setting [2].
